Measurements as given in patent publication US5140025A, “Thienotricylene for the treatment of bronchial diseases” (BYK Gulden Lomberg Chemische Fabrik GmbH, priority 1987, dated 1992).
Read-outs that look alike come from different tables or passages of the source.

How the values were obtained:
[1] = tested on: acetylcholine-induced changes in lung function parameters; assay: Acetylcholine-induced changes in lung function parameters in anaesthetised guinea pigs, intratracheal administration (whole-body plethysmography); format: in vivo, guinea pig (Pirbright White); conditions: for Bronchospasmolytic activity, percentage increase of compliance vs control / Bronchospasmolytic activity, percentage increase of conductance vs control: x±SEM, N=10; for ED50: Cavia porcellus
Text: Effect of Intratracheally (i.t.) Administered (±)-Telenzepine on Acetylcholine-Induced Changes in Lung Function Parameters in Anaesthetised Guinea Pigs
Small-anmimal whole-body plethysmography in anaesthetised guinea pigs (method according to U. Heinreich and A. Wilhelm, in bga-Schriften 5/84, pp 255-266, MMW-Verlag, 1984).
Pirbright White, Interfauna (Tuttlingen). 290-350 g, male.
Ethylurethane 1.2 g/kg i.p. as 12.5% aqueous solution.
Plethysmographic measurement of maximum flow velocities of the respiratory air and tidal volume using tracheal catheter inserted through the natural passages; and measurement of intrapleural pressure using oesophageal catheter inserted through the natural passages.
0.001, 0.01, 0.1 and 1 μmol/kg (±)-telenzepine i.t., dissolved in 0.1 ml/kg 0.9% NaCl+0.1% Tween 80, acetylcholine as spasmogen administered by inhalation of ultrasonically nebulized 0.18% acetylcholine/0.9% NaCl solution.
-10 min control spasm, 0 min administration of substance, +5 and +30 min test spasms.
Computation of conductance (=capacity of airways to conduct air, equivalent to reciprocal of airway resistance) and of compliance (=distensibility of lung) from the recorded data, according to the method of Amdur and Mead (Amer. J. Physiol., 192, 364-368, 1958), before and at peak spasm, and determination of differences; calculation of percentage inhibition of the spasm after administration of the substance, in comparison with the control spasm; calculation of the dose/response curve and ED50 values of this bronchospasmolytic activity.

M2 receptor (cardiac) = molecular target: T1, M2 receptor (cardiac) (Rattus norvegicus, UniProt P10980); assay: Receptor affinity, electrically stimulated left atrium of the rat; conditions: agonist carbachol, Schild slope normalised to 1.00, read-out: pA2 ± SEM, M2 receptor (cardiac) (converted)
T1 construct: isolated, left atria of rats (male 250-350 g); from tissue; host or cells: rat left atrium (isolated, male rats 250-350 g)
T1 sequence (P10980 1-466): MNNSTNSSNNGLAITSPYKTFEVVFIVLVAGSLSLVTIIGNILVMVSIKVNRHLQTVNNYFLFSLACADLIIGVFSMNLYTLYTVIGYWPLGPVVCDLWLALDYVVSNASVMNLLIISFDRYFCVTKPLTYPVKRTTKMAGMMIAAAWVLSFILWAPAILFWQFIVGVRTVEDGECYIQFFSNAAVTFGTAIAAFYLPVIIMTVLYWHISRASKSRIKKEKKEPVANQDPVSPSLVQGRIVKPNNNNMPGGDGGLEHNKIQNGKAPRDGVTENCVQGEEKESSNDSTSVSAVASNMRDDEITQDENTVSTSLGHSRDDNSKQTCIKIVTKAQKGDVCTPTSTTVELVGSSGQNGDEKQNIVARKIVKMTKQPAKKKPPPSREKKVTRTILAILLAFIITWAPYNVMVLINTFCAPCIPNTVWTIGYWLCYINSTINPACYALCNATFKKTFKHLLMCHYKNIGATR
Text: The affinity of (±)-4,9-dihydro-3-methyl-4-[(4-methyl-1-piperazinyl)-acetyl]-10H-thieno[3,4-b][1,5]benzodiazepin-10-one (telenzepine, compound 2 in Table 7) and its conformers [(+)-enantiomer=compound 1, (-)-enantiomer=compound 3] to muscarinic M1 (ganglionic type) and M2 (cardiac type) receptors was investigated by the following methods:
Electrically Stimulated Left Atrium of the Rat (Eltze et al., 1985, Europ. J. Pharmacol. 112, 211-224).
Isometric contractions (HSE force transducer, K-30; Watanabe Linear Corder Mark 5) of isolated, left atria of rats (male 250-350 g) were recorded in an organ bath (10 ml, Tyrode nutrient solution, 31° C., gassing with carbogen, initial tension of the organs 0.25 g) under electrical stimulation (HSE stimulator; hook-shaped Pt electrodes at the base of the bath and immersed, annular Pt electrodes 1 cm below the water surface of the bath; 7 V, 3 ms, 2 Hz). After an equilibration time of 30 minutes, cumulative dose/response curves of carbachol (10^-8 -10^-6 M, in the presence of the antagonist also up to 10^-5 or 10^-4 M) were recorded simultaneously on 4 organs in each case by the technique described by van Rossum (1963). The substance to be tested was added to the organ baths 20 minutes before application of the carbachol. The pauses between the individual dose/response curves were 30-45 minutes.
The Tyrode nutrient solution used had the following composition (mM): NaCl 130, KCl 2.0, CaCl2 ·2H2 O 1.8, MgCl2 ·6H2 O 0.98, NaHCO3 12.0, NaH2 PO4 0.42 and glucose monohydrate 5.6. pA2 values (-log of the molar dissociation constants of the competitive antagonist-receptor complex) were determined by linear regression using the Schild plot: pA2 =-log [B/(x-1)], (Arunlakshana and Schild, 1959).
Table 7 below gives pA2 values of the substances, for which the slope of the regression lines for theoretically competitive antagonism have been normalised to 1.00 (Tallarida et al., 1979).

Kb (M2 receptor (cardiac)): 0.0479 µM
Compound: Cc1scc2c1N(C(=O)CN1CCN(C)CC1)c1ccccc1NC2=O (racemic) [(±)-telenzepine, 4,9-dihydro-3-methyl-4-[(4-methyl-1-piperazinyl)-acetyl]-10H-thieno[3,4-b][1,5]benzodiazepin-10-one]
Bronchospasmolytic activity, percentage increase of compliance vs control ([1]; 5 min, 0.001 μmol/kg i.t.): 5 ± 1% | Bronchospasmolytic activity, percentage increase of conductance vs control ([1]; 5 min, 0.001 μmol/kg i.t.): 12 ± 3% | Bronchospasmolytic activity, percentage increase of compliance vs control ([1]; 5 min, 0.01 μmol/kg i.t.): 50 ± 9% | Bronchospasmolytic activity, percentage increase of conductance vs control ([1]; 5 min, 0.01 μmol/kg i.t.): 62 ± 10% | Bronchospasmolytic activity, percentage increase of compliance vs control ([1]; 5 min, 0.1 μmol/kg i.t.): 34 ± 10% | Bronchospasmolytic activity, percentage increase of conductance vs control ([1]; 5 min, 0.1 μmol/kg i.t.): 46 ± 10% | Bronchospasmolytic activity, percentage increase of compliance vs control ([1]; 5 min, 1 μmol/kg i.t.): 57 ± 9% | Bronchospasmolytic activity, percentage increase of conductance vs control ([1]; 5 min, 1 μmol/kg i.t.): 65 ± 9% | Bronchospasmolytic activity, percentage increase of compliance vs control ([1]; 30 min, 0.001 μmol/kg i.t.): 13 ± 3% | Bronchospasmolytic activity, percentage increase of conductance vs control ([1]; 30 min, 0.001 μmol/kg i.t.): 20 ± 5% | Bronchospasmolytic activity, percentage increase of compliance vs control ([1]; 30 min, 0.01 μmol/kg i.t.): 49 ± 9% | Bronchospasmolytic activity, percentage increase of conductance vs control ([1]; 30 min, 0.01 μmol/kg i.t.): 51 ± 9% | Bronchospasmolytic activity, percentage increase of compliance vs control ([1]; 30 min, 0.1 μmol/kg i.t.): 51 ± 9% | Bronchospasmolytic activity, percentage increase of conductance vs control ([1]; 30 min, 0.1 μmol/kg i.t.): 54 ± 7% | Bronchospasmolytic activity, percentage increase of compliance vs control ([1]; 30 min, 1 μmol/kg i.t.): 89 ± 4% | Bronchospasmolytic activity, percentage increase of conductance vs control ([1]; 30 min, 1 μmol/kg i.t.): 84 ± 2% | ED50 ([1]; 5 min, 5 min p.a., read-out: ED50 of bronchospasmolytic activity, compliance): 0.3 µmol/kg | ED50 ([1]; 5 min, 5 min p.a., read-out: ED50 of bronchospasmolytic activity, conductance): 0.05 µmol/kg | ED50 ([1]; 0.5 h, 30 min p.a., read-out: ED50 of bronchospasmolytic activity, compliance): 0.03 µmol/kg | ED50 ([1]; 0.5 h, 30 min p.a., read-out: ED50 of bronchospasmolytic activity, conductance): 0.03 µmol/kg | dose range of time- and dose-dependent inhibition of acetylcholine-induced reduction of conductance and compliance ([1]; i.t.): 0.001-1 μmol/kg i.t. | efficacy at 30 min compared with 5 min after administration ([1]; i.t.): more pronounced at 30 min than at 5 min
